Results published in article PMC8841528, “Structural Basis for Unusual TCR CDR3β Usage Against an Immunodominant HIV-1 Gag Protein Peptide Restricted to an HLA-B*81:01 Molecule” (Frontiers in Immunology, 2022).

System: T18A TCR
Test: Surface plasmon resonance (SPR) binding of T18A TCR to peptide/HLA-B*81:01 complexes
Conditions: result in words
Protocol: The SPR assays were performed as described earlier ([40]–[42]). Briefly, the protein was buffer -exchanged into PBS and biotinylated for 1h at room temperature. […] The Kd was determined by the fitting of a single-ligand binding model.

Substance	recognition of TL9 escape variant presented by HLA-B*81:01 by T18A TCR
TPQDLNsML [TL9 escape variant, Ser at position 7, presented by HLA-B*81:01]	could recognize
TPsDLNTML [TL9 escape variant, Ser at position 3, presented by HLA-B*81:01]	could recognize
